Where two headings read alike, the source gives them in different places.
Experiments:
[1] = Liver microsome metabolic stability assay; conditions: microsomes
Method: The reaction media contained liver microsomes (0.5 mg/mL), 1.0 mM β-nicotinamide adenine dinucleotide phosphate (β-NADPH), 3 mM MgCl2 phosphate buffer. Microsomal suspensions were pre-incubated with Tc3 for 3 min at 37℃. The reaction was initiated with the addition of β-NADPH and samples were collected at 0, 5, 15, 30 and 60 min. The negative control was excluded of β-NADPH. Midazolam was incubated similarly as a positive control substrate. At each time point, an aliquot was mixed acetonitrile. Samples were centrifuged and then supernatant was mixed with ultrapure water for LC-MS/MS analysis.

HepG2 cells = assay: Anti-tumor activity assay (IC50 value), cells counted after three days; conditions: for IC50: read-out: IC50 HepG2; for fold increase in cellular potency: HepG2, compared to T1;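 for all read-outs here: HepG2 cells exposed to a drug concentration series for 3 days, then counted with a hemocytometer, inhibition relative to untreated control cell number, IC50 obtained by curve fitting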
PLC-PRF5 cells = assay: as above; format: cell-based; conditions: Homo sapiens, PLC-PRF-5, 72 h
From the text: The cells were counted with hemocytometer.

HepG2 and SK-Hep1 cells = assay: LDH release assay; format: cell-based, human; conditions: 0-4 μM, three days
Method: The hepatic carcinoma cells were seeded in 96-well plates and treated with indole analogues for three days. Of note, the compounds were added into DMEM medium supplemented with 1% FBS. The cellular supernatant was collected for LDH release detection by using LDH cytotoxicity assay kit (Beyotime, C0016). Statistical analysis was combined with the cell viability data tested by WST-1 cell proliferation and cytotoxicity assay kit (Beyotime, C0035).

GSDME = assay: Western blot of GSDME activation; format: cell-based, human; conditions: HepG2 and SK-Hep1 cells
Method: The whole-cell protein was extracted by RIPA lysis buffer contained with protease and phosphatase inhibitor cocktail (MCE, HY-K0010) from cells treated by indole analogues. Proteins were separated by sodium dodecyl sulfate-polyacrylamide gel electrophoresis (SDS-PAGE) gel, and then blotted onto polyvinylidene difluoride membrane (Millipore, IPVH00010). The membranes were incubated with the primary antibodies and the following horseradish peroxidase-conjugated (HRP) secondary antibodies. Next, membranes were washed and developed by ECL regent (Millipore, WBKLS0500).

SK-Hep1 cells = assay: Anti-tumor activity assay (IC50 value), cells counted after three days; conditions: read-out: IC50 SK-Hep1
Method: For half maximal inhibitory concentrations (IC50) analysis, the hepatic carcinoma cells (HepG2, SK-Hep1 and PLC-PRF5) were seeded in 24-well plates respectively, then treated with drugs at concentration gradient for three days. The cells were counted with hemocytometer. […] A is the cell quantity of the control group and B is the cell quantity of the drug treated group. The cell inhibition rate was transformed using its logarithm. And the drug IC50 value were calculated by Graphpad Prsim 9 software with curve fitting of the drug concentration and log (cell inhibition rate).

SMILES | IC50 (HepG2 cells; Homo sapiens, HepG2, 72 h) | also measured
Cc1ncc2n1-c1ccc(Cl)cc1C(c1ccccc1F)=NC2 [midazolam, reference compound] |  | microsomal CLint at 1 μM ([1]; human): 1200 µL/min/mg; half-life at 1 μM ([1]; mouse): 2.72 min; microsomal CLint at 1 μM ([1]; mouse): 1270 µL/min/mg
N[C@@H](Cc1ccc(O)cc1)C(=O)NCCCn1cc(/C=C2\SC(=O)N(Cc3ccc(F)cc3)C2=O)c2cc(Br)ccc21 [Tb5] | 11.3 µM | 
CC(C)[C@H](N)C(=O)NCCCn1cc(/C=C2\S/C(=N/C3CCCCC3)N(Cc3ccc(F)cc3)C2=O)c2ccccc21 [Tc11] | 20.9 µM | 
CCCC/N=C1\S/C(=C\c2cn(CCCNC(=O)[C@@H](N)C(C)C)c3ccccc23)C(=O)N1Cc1ccc(F)cc1 [Tc12] | 25 µM | 
CC(C)[C@H](N)C(=O)NCCCn1cc(/C=C2\S/C(=N\c3ccc(Cl)cc3)N(Cc3ccc(F)cc3)C2=O)c2ccccc21 [Tc8] | 15.2 µM | 
O=C(NCCCn1cc(/C=C2\SC(=O)N(Cc3ccc(F)cc3)C2=O)c2ccccc21)C1CCCC1 [Ta1] | 27.7 µM | 
NCCCn1cc(/C=C2\S/C(=N\c3ccc(N4CCOCC4)cc3)N(Cc3ccc(F)cc3)C2=O)c2ccccc21 [Tc1] | 5.13 µM | IC50 (PLC-PRF5 cells): 2.71 ± 0.12 µM; LDH release levels (HepG2 and SK-Hep1 cells): increased; GSDME activation / cleavage (western blotting) (GSDME): did not activate GSDME; fold increase in cellular potency (HepG2 cells): ~ 3 fold; IC50 (SK-Hep1 cells; Homo sapiens, SK-HEP1, 72 h): 2.87 ± 0.61 µM
COc1ccc(/N=C2\S/C(=C\c3cn(CCCNC(=O)[C@@H](N)C(C)C)c4ccccc34)C(=O)N2Cc2ccc(F)cc2)cc1 [Tc10] | > 100 µM | 
CSCC[C@H](N)C(=O)NCCCn1cc(/C=C2\SC(=O)N(Cc3ccc(F)cc3)C2=O)c2cc(Br)ccc21 [Tb6] | 6.31 ± 0.35 µM | 
COc1cc2nccc(Oc3ccc(NC(=O)NC4CC4)c(Cl)c3)c2cc1C(N)=O [Lenvatinib, reference compound] | 19.8 ± 1.43 µM | IC50 (SK-Hep1 cells; Homo sapiens, SK-HEP1, 72 h): 12.4 ± 1.32 µM
O=C(NCCCn1cc(/C=C2\S/C(=N\c3ccc(N4CCOCC4)cc3)N(Cc3ccc(F)cc3)C2=O)c2ccccc21)[C@@H]1CCCN1 [Tc4] | 2.46 µM | IC50 (PLC-PRF5 cells): 2.92 ± 0.32 µM; LDH release levels (HepG2 and SK-Hep1 cells): increased; GSDME activation / cleavage (western blotting) (GSDME): did not activate GSDME; fold increase in cellular potency (HepG2 cells): ~6.5 fold; IC50 (SK-Hep1 cells; Homo sapiens, SK-HEP1, 72 h): 2.3 ± 0.14 µM
CC[C@H](C)[C@H](N)C(=O)NCCCn1cc(/C=C2\S/C(=N\c3ccc(N4CCOCC4)cc3)N(Cc3ccc(F)cc3)C2=O)c2ccccc21 [Tc5] | 4.9 µM | fold increase in cellular potency (HepG2 cells): ~ 3 fold
O=C(NCCCn1cc(/C=C2\SC(=O)N(Cc3ccc(F)cc3)C2=O)c2cc(Br)ccc21)[C@@H]1CCCN1 [Tb4] | 9.23 µM | 
NCCCn1cc(/C=C2\SC(=O)N(Cc3ccc(F)cc3)C2=O)c2ccccc21 [Compound T1] | 15.9 µM | 
COc1ccc2c(c1)c(/C=C1\SC(=O)N(Cc3ccc(F)cc3)C1=O)cn2CCCNC(=O)[C@@H]1CCCN1 [Tb9] | 7.47 µM | 
C[C@H](N)C(=O)NCCCn1cc(/C=C2\SC(=O)N(Cc3ccc(F)cc3)C2=O)c2ccccc21 [Tb1] | 7.97 ± 0.3 µM | 

SMILES | IC50 (HepG2 cells; Homo sapiens, HepG2, 72 h) | also measured
CC(C)[C@H](N)C(=O)NCCCn1cc(/C=C2\SC(=O)N(Cc3ccc(F)cc3)C2=O)c2ccccc21 [Tb2] | 6.74 ± 0.8 µM | 
Nc1ccn([C@@H]2O[C@H](CO)[C@@H](O)C2(F)F)c(=O)n1 [Gemcitabine, reference compound] | 0.14 ± 0.01 µM | IC50 (SK-Hep1 cells; Homo sapiens, SK-HEP1, 72 h): 0.04 ± 0.003 µM
COc1ccc2c(c1)c(/C=C1\SC(=O)N(Cc3ccc(F)cc3)C1=O)cn2CCCNC(=O)[C@@H](N)Cc1ccc(O)cc1 [Tb8] | 6.92 ± 1.21 µM | 
CC(C)[C@H](N)C(=O)NCCCn1cc(/C=C2\S/C(=N\c3ccccc3)N(Cc3ccc(F)cc3)C2=O)c2ccccc21 [Tc6] | > 100 µM | 
CNC(=O)c1cc(Oc2ccc(NC(=O)Nc3ccc(Cl)c(C(F)(F)F)c3)cc2)ccn1 [Sorafenib, reference compound] |  | IC50 (HepG2 cells; 72 h): 6.06 µM; IC50 (SK-Hep1 cells; 72 h): 4.4 µM
CC[C@H](C)[C@H](N)C(=O)NCCCn1cc(/C=C2\SC(=O)N(Cc3ccc(F)cc3)C2=O)c2cc(Br)ccc21 [Tb7] | 1.79 µM | IC50 (PLC-PRF5 cells): 1.26 ± 0.31 µM; LDH release levels (HepG2 and SK-Hep1 cells): increased; GSDME activation / cleavage (western blotting) (GSDME): did not activate GSDME; fold increase in cellular potency (HepG2 cells): ~9 fold; IC50 (SK-Hep1 cells; Homo sapiens, SK-HEP1, 72 h): 2.21 ± 0.17 µM
CC(C)C(=O)NCCCn1cc(/C=C2\SC(=O)N(Cc3ccc(F)cc3)C2=O)c2ccccc21 [Ta3] | > 50 µM | 
CC(C)[C@H](N)C(=O)NCCCn1cc(/C=C2\S/C(=N\c3ccc(C(F)(F)F)cc3)N(Cc3ccc(F)cc3)C2=O)c2ccccc21 [Tc9] | 10.8 µM | 
CCCCCCCC(=O)NCCCn1cc(/C=C2\SC(=O)N(Cc3ccc(F)cc3)C2=O)c2ccccc21 [Ta5] | > 100 µM | 
CNC(=O)c1cc(Oc2ccc(NC(=O)Nc3ccc(Cl)c(C(F)(F)F)c3)c(F)c2)ccn1 [Regorafenib, reference compound] | 4.21 ± 0.33 µM | IC50 (SK-Hep1 cells; Homo sapiens, SK-HEP1, 72 h): 4.23 ± 0.64 µM
O=C(NCCCn1cc(/C=C2\SC(=O)N(Cc3ccc(F)cc3)C2=O)c2ccccc21)[C@@H]1CCCN1 [Tb3] | 6.2 µM | 
CC(C)CCC(=O)NCCCn1cc(/C=C2\SC(=O)N(Cc3ccc(F)cc3)C2=O)c2ccccc21 [Ta4] | > 100 µM | 
CSCC[C@H](N)C(=O)NCCCn1cc(/C=C2\S/C(=N\c3ccc(N4CCOCC4)cc3)N(Cc3ccc(F)cc3)C2=O)c2ccccc21 [Tc2] | 8.77 µM | fold increase in cellular potency (HepG2 cells): ~2 fold
CC(C)[C@H](N)C(=O)NCCCn1cc(/C=C2\S/C(=N\c3ccc(F)cc3)N(Cc3ccc(F)cc3)C2=O)c2ccccc21 [Tc7] | 12.4 µM | 
COc1cc2nccc(Oc3ccc(NC(=O)C4(C(=O)Nc5ccc(F)cc5)CC4)cc3)c2cc1OC [Cabozantinib, reference compound] | 2.64 ± 0.85 µM | IC50 (SK-Hep1 cells; Homo sapiens, SK-HEP1, 72 h): 2.26 ± 0.32 µM

From article PMC11729550, “Discovery of indole analogue Tc3 as a potent pyroptosis inducer and identification of its combination strategy against hepatic carcinoma” (Theranostics, 2025)
